Experimental data reported in PubChem BioAssay (NCI).
Several values for one entry are separate records, joined by “and”; a condition that tells them apart may be missing. Equal values may be shown once.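 Cells were grown in 96-well plates and exposed to each compound for 48 hours at five concentrations; endpoints were interpolated linearly between bracketing concentrations, or set to the highest concentration if not reached. At the GI50, growth is halved. At the TGI there is no net growth.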

Assays:
Assay in all cases: NCI-60 cell line screen, 48 h
[1] = test system: BT-549 breast
[2] = test system: CAKI-1 renal
[3] = test system: HCT-116 colon
[4] = test system: HOP-62 NSCLC
[5] = test system: MALME-3M melanoma
[6] = test system: SK-MEL-2 melanoma
[7] = test system: SNB-19 CNS
[8] = test system: T-47D breast
[9] = test system: UACC-62 melanoma
[10] = test system: UO-31 renal

| Structure (SMILES) | GI50 [1] | TGI [1] | GI50 [2] | TGI [2] | GI50 [3] | TGI [3] | GI50 [4] | TGI [4] | GI50 [5] | TGI [5] | GI50 [6] | TGI [6] | GI50 [7] | TGI [7] | GI50 [8] | TGI [8] | GI50 [9] | TGI [9] | GI50 [10] | TGI [10] |
| --- | --- | --- | --- | --- | --- | --- | --- | --- | --- | --- | --- | --- | --- | --- | --- | --- | --- | --- | --- | --- |
| COc1cnc2c(c1)C(=O)c1c-2n(CCCN2CCCC2)c(=O)c2cc([N+](=O)[O-])ccc12 | 0.354 µM | 16 µM | < 0.01 µM | 1.46 µM | < 0.01 µM | 0.144 µM | < 0.01 µM | 1.24 µM | 0.0558 µM | 1.15 µM | 1.01 µM | 15.9 µM | 0.0355 µM | 4.3 µM | 0.0179 µM | 12.8 µM | 0.0153 µM | 0.631 µM | < 0.01 µM | 0.206 µM |
| COc1ccc(Br)cc1NC(=O)Nc1cccc2c1ccn2Cc1ccnc(N)c1 | 11.7 µM and > 10 µM | 38.6 µM and > 10 µM | 4.79 µM and 8.78 µM | 21.5 µM and > 10 µM | 5.85 µM and 5.75 µM | 19.5 µM and > 10 µM | 4.86 µM and > 10 µM | 11.1 µM and > 10 µM | 12.1 µM and > 10 µM | 32 µM and > 10 µM | 2.78 µM and 3.82 µM | 8.87 µM and > 10 µM | 13.6 µM and > 10 µM | > 85.7 µM | 3.3 µM and 3.9 µM | 18.4 µM and > 10 µM | 6.17 µM and 5.94 µM | 21.7 µM and > 10 µM | 9.78 µM and 3.12 µM | 26.3 µM and > 10 µM |
| Cc1c(Cn2c(C)nc3c(C(=O)O)cc(N4CCOCC4)cc32)cccc1C(F)(F)F | 25.8 µM | > 100 µM | 7.44 µM | > 100 µM | 42.1 µM | > 100 µM | 37.5 µM | > 100 µM | > 69.7 µM | > 100 µM | 96.9 µM | > 100 µM | > 100 µM | > 100 µM | 36.7 µM | > 100 µM | 21.1 µM | > 100 µM | 3.46 µM | > 67.6 µM |
| COc1cc(-c2nn(-c3cccc(NC(=O)Nc4ccc(Cl)c(C(F)(F)F)c4)c3)cc2-c2ccncc2)ccc1Cl | 2.36 µM | 10.2 µM | 0.992 µM | 4.72 µM | 1.17 µM | 4.56 µM | 1.31 µM | 6.49 µM | 0.838 µM | 2.35 µM | 1.01 µM | 2.58 µM | 1.24 µM | 9.24 µM | 1.23 µM | > 32.5 µM | 0.738 µM | 2.09 µM | 0.865 µM | 4.1 µM |
| CCOC(=O)c1[nH]c2cc(Cl)ccc2c1[C@@H](C(=O)NC(C)(C)C)N(CC)C(=O)CCCCC#Cc1cccc2c1CN(C1CCC(=O)NC1=O)C2=O (stereo not given in full) | < 0.0197 µM | 4.81 µM | 0.0355 µM | 8.62 µM | 2.55 µM | 18.5 µM | < 0.01 µM | 6.81 µM | < 0.01 µM | 0.456 µM | 1.47 µM | 4.15 µM | 0.0731 µM | 34.5 µM | < 0.01 µM | 7.59 µM | 1.56 µM | 5.51 µM | 0.0425 µM | 2.95 µM |
| O=C1C2CCN(CC2)C1CN1CCOCC1 (stereo not given) |  | 4.53 µM |  | 4.09 µM |  | 3.73 µM |  | 34 µM |  | 3.28 µM |  | 32.5 µM |  | 32.6 µM |  | 3.93 µM |  | 30.9 µM |  | 7.14 µM |
| CN(C)CCNc1ccc2ncn3c4ccc(O)cc4c(=O)c1c23 |  | 28.1 µM |  | 4.83 µM |  | 11.5 µM |  | 5.35 µM |  | 14.4 µM |  | 13 µM |  | 17.2 µM |  | 25 µM |  | 15.9 µM |  | 8.06 µM |
| Cc1c(CN2CCN(C(=O)[C@H](C)O)CC2)sc2c(N3CCOCC3)nc(-c3cnc(N)nc3)nc12 | 0.146 µM and 0.065 µM | 3.11 µM and 0.57 µM | 0.159 µM and 0.213 µM | > 4.52 µM and 2.14 µM | 0.634 µM and 0.252 µM | > 40.1 µM | 0.548 µM and 0.182 µM | > 7.07 µM and 3.85 µM | 0.0506 µM | 0.847 µM and 0.414 µM | 0.513 µM and 0.198 µM | 4.72 µM and 1.8 µM | 0.898 µM and 0.313 µM | > 10 µM and 6.16 µM | 0.0145 µM and 0.0269 µM | 0.332 µM and 0.175 µM | 0.1 µM and 0.11 µM | 0.917 µM and 0.467 µM | 0.0579 µM and 0.053 µM | 1.35 µM and 0.658 µM |
| CN1C(=O)CCC(N2C(=O)c3cccc(NCCOCCOCCNC(=O)c4cc5c(o4)C(=O)c4ccccc4C5=O)c3C2=O)C1=O (stereo not given) | 1.38 µM | 2.7 µM | 3.35 µM | 12.1 µM | 2.17 µM | 6.21 µM | 1.97 µM | 3.43 µM | 0.151 µM | 0.316 µM | 2.2 µM | 6.49 µM | 1.58 µM | 5.57 µM | 2.88 µM | 10.3 µM | 1.04 µM | 2.35 µM | 1.59 µM | 3.31 µM |
| C(=N\Nc1ncc(-c2cc3cc4c(cc3o2)OCO4)s1)/c1ccco1 | 3.43 µM | 15.2 µM | 0.854 µM | 6.69 µM | 1.57 µM | 4.03 µM | 3.04 µM | 12.6 µM | 1.92 µM | 6.18 µM | 3.11 µM | 11.3 µM | 4.73 µM | 23.1 µM | 1.27 µM | 9.74 µM | 3.81 µM | 14.5 µM | 0.59 µM | 3.68 µM |
| COc1nc(N)nc2c1ncn2C1CC(O)C(CO)O1 (stereo not given) |  | > 100 µM |  | > 100 µM |  | > 100 µM |  | > 100 µM |  | > 100 µM |  | > 100 µM |  | > 100 µM |  | > 100 µM |  | > 100 µM |  | > 100 µM |
